# Assay results as given in publication PMC11758220, “Identification of a Privileged Scaffold for Inhibition of Sterol Transport Proteins through the Synthesis and Ring Distortion of Diverse, Pseudo-Natural Products” (ACS Central Science, 2025).
# Columns and labels:
# STARD3 = biological target: T1, STARD3 (Homo sapiens, UniProt Q14849); assay: Differential scanning fluorimetry (DSF), STARD3; format: binding; conditions: for ΔTm at 10 µM / STARD3 (DSF) ΔTm: single dose, Dose = 10 µM; for Kd: apparent Kd, mean of three experiments run in technical duplicates, read-out: STARD3 Kd,app (DSF); for STARD3 (DSF) ΔTmmax: maximal thermal shift
# T1 construct: STARD3(216-444); made in house; host or cells: E. coli BL21(DE3)
# T1 sequence (Q14849 216-444): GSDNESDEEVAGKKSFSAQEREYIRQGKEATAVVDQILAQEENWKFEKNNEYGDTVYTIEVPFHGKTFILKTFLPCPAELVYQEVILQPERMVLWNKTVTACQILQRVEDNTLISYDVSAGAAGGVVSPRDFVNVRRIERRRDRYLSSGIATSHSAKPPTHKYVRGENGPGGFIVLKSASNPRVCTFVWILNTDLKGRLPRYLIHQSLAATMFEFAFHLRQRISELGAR
# Description: (§1) Protein expression constructs
# (§2) Human ASTER domains of Aster-A(359-547), -B(364-552) and -C(318-504) were subcloned into a pGEX-6p-2rbs vector, thus introducing the cloning artifact ‘GPLGS’.3 The pGEX-6P-1-GST-OSBP(377- […]
# (§3) a gift from James H. Hurley (University of California).4 The pHIS_2His6_Thrombin_STARD4(2-205;C75S) plasmid was a gift from Young Jun Im (Chonnam National University).5 STARD5A was a gift from Nicola Burgess-Brown (Addgene plasmid #42392; http://n2t.net/addgene:42392; […]
# (§4) Protein expression and purification […]
# (§5) vectors including an N-terminal PreScission-cleavable glutathione S-transferase (GST)-tag were expressed in Escherichia coli (E. coli) OverExpress C41 in Terrific Broth (TB) medium for 16 h at 18 °C after the induction with 0.1 mM isopropyl β-D-1-thiogalactopyranoside (IPTG). Cells were harvested at 3500 × g for 15 minutes and lysed by sonication in buffer containing 50 mM HEPES pH 7.5, 300 mM NaCl, 10 %v/v glycerol, 5 mM dithiothreitol (DTT), 0.1 %v/v Triton X-100 and protease inhibitor mix HP plus (Serva). The lysate was purified by affinity chromatography on a GSTrap FF column (Cytiva) using an ÄKTA Start (Cytiva) in buffer containing 50 mM HEPES pH 7.5, 300 mM NaCl, 10 %v/v glycerol, 5 mM DTT and 0.01 %v/v Triton X-100. The GST-tag was cleaved overnight on the column at 4 °C. The Aster sterol binding domains were further purified by size-exclusion chromatography (SEC) on a HiLoad 16/600 Superdex 75 pg (Cytiva) in buffer containing 20 mM HEPES pH 7.5, 300 mM NaCl, 10 %v/v […]
# (§6) STARD5(6-213) harboring an N-terminal His6-Tag were expressed in E. coli BL21(DE3) in Luria-Bertani Broth (LB) medium for approximately 16 h at 18 °C after induction with 0.15 mM IPTG. Cells were harvested at 3500 × g for 15 minutes and lysed by sonication in buffer containing 50 mM HEPES pH 7.5, 150 mM NaCl, 5 %v/v glycerol, 5 mM DTT, 0.1 %v/v Triton X -100 and ethylenediaminetetraacetic acid (EDTA)-free protease inhibitor cocktail (Sigma-Aldrich). The cleared lysate was purified by affinity chromatography on a Ni-NTA Superflow Cartridge (Qiagen) using an ÄKTA Start (Cytiva) in buffer containing 50 mM HEPES pH 7.5, 150 mM NaCl, 5 %v/v glycerol, 5 mM DTT. START domains were eluted by using elution buffer containing 50 mM HEPES pH 7.5, 150 mM NaCl, 5 %v/v glycerol, 5 mM DTT and 500 mM imidazole. Proteins were further purified by SEC on a HiLoad 16/600 Superdex 75 pg (Cytiva) in buffer containing 20 mM HEPES pH 7.5, 150 mM NaCl, 5 %v/v glycerol and 2 mM DTT.
# (§7) The ORP domain of human OSBP(377-807) in the pGEX-6p-1 vector with an N-terminal PreScission-cleavable GST-tag was expressed in E. coli OverExpress C41 in LB medium for 16 h at 18 °C after induction with 0.1 mM IPTG. Cells were harvested at 3500 × g for 15 minutes and lysed by sonication in buffer containing 20 mM HEPES pH 7.5, 300 mM NaCl, 10 %v/v glycerol, 5 mM DTT, 0.1 %v/v Triton X-100 and EDTA-free protease inhibitor cocktail (Sigma-Aldrich). The cleared lysate was purified by affinity chromatography on a GSTrap HF column (Cytiva) using an ÄKTA Start (Cytiva) in buffer containing 20 mM HEPES pH 7.5, 300 mM NaCl, 10 %v/v glycerol, 5 mM DTT. OSBP(377 -807) was eluted by using elution buffer containing 20 mM HEPES pH 7.5, 300 mM NaCl, 10 %v/v glycerol, 5 mM DTT and 10 mM reduced glutathione. Proteins were further purified by SEC on a HiLoad 16/600 Superdex 75 pg (Cytiva) using an ÄKTA Explorer (Cytiva) in buffer containing 20 mM HEPES pH 7.5, 150 mM NaCl, 10 %v/v glycerol and 2 mM DTT.
# (§8) The ORP domains of human ORP1(534-950) in pET24b(+) and ORP2(49-480) in the pET24b(+) vector including an N-terminal His6-Tag were expressed in E. coli BL21(DE3) in TB medium for approximately 16 h at 18 °C after induction with 0.1 mM IPTG. Cells were collected at 3500 × g for 15 minutes and lysed by sonification in buffer containing 10 mM Tris-HCl pH 8, 300 mM NaCl, 5 % glycerol, 2 mM DTT, 0.1 % Triton X-100 and EDTA-free protease inhibitor cocktail (Sigma-Aldrich). The cleared […]
# Aster-B = biological target: T2, Aster-B (Homo sapiens, UniProt Q3KR37); assay: Fluorescence polarisation (FP) competition with NBD-cholesterol, Aster-B; format: binding; conditions: for IC50: mean of three experiments run in technical duplicates; for inhibition at 10 µM / Aster-B (FP) inhibition: single dose, Dose = 10 µM
# T2 construct: -B(364-552); GST (PreScission-cleavable) (N, cleaved yes); made in house; host or cells: E. coli OverExpress C41
# T2 sequence (Q3KR37 364-552): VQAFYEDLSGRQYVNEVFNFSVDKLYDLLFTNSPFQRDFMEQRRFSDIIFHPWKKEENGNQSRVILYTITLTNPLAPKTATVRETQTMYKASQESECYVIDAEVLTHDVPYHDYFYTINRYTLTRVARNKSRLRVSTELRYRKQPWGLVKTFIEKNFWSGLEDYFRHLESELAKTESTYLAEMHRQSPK
# Description: as §1, §2, §3, §4, §5, §6, §7, §8
Structure (SMILES),ΔTm at 10 µM (STARD3),IC50 (Aster-B),inhibition at 10 µM (Aster-B),Kd (STARD3),STARD3 (DSF) ΔTmmax (STARD3),STARD3 (DSF) ΔTm (STARD3),Aster-B (FP) inhibition (Aster-B)
C[C@]12CC[C@@H]3C[C@H]1CC[C@@]21C(=Nc2ccc(Br)cc21)O3 (racemic) [Compound 15b],0.3 °C,> 80 µM,19%,–,–,–,–
CC12CCC3CC1CCC21C(=Nc2ccc(N4CCOCC4)cc21)O3 (racemic) [Compound 19a],1.2 °C,> 80 µM,14%,–,–,–,–
"CC12CCC3CC1CCC21C(=Nc2ccc(Br)cc21)O3 (single isomer, unassigned; (+)) [(+)-15b]",0.244 °C,> 80 µM,3.33%,> 100 µM,0.44 °C,–,–
"CC12CCC3CC1CCC21C(=Nc2ccc(N4CCOCC4)cc21)O3 (single isomer, unassigned; (+)) [(+)-19a]",1.5 °C,> 80 µM,7.5%,> 100 µM,3.6 °C,–,–
"CC12CCC3CC1CCC21C(=Nc2ccc(N4CCOCC4)cc21)O3 (single isomer, unassigned; (-)) [(−)-19a]",–,> 80 µM,–,> 100 µM,0.9 °C,1.0 °C,7%
C[C@@]12CC[C@H]3C[C@@H]1CC[C@]21C(=Nc2ccc(Br)cc21)O3 [(−)-15b],0.5 °C,> 80 µM,14%,> 100 µM,0.7 °C,–,–
"CC(C)Oc1ccc(C(=O)Nc2nc3c(s2)CN(C(=O)OC(C)(C)C)CC3)cc1 [Autogramin-2, reference compound]",–,> 80 µM,–,> 30 µM,–,0.027 °C,5%
Cc1c2c(nc3ccccc13)[C@@]1(C)CC[C@@H](O)C[C@H]1CC2 [Compound 2a],-0.0816 °C,–,14%,–,–,–,–
C[C@]12CC[C@@H](O)C[C@H]1CCc1c2nc2ccccc2c1-c1ccccc1 [Compound 2b],–,–,–,–,–,0.0566 °C,2.5%
Cc1c2c(nc3cc(Br)ccc13)[C@@]1(C)CC[C@@H](O)C[C@H]1CC2 [Compound 2c],–,–,–,–,–,-0.168 °C,9%
C[C@]12CC[C@@H](O)C[C@H]1CCc1c2nc2ccccc2c1-c1ccc(F)cc1 [Compound 2d],0.0456 °C,–,7.5%,–,–,–,–
C[C@]12CC[C@@H](O)C[C@H]1CCc1c2nc2ccc(Cl)cc2c1-c1ccccc1 [Compound 2e],–,–,–,–,–,-0.1 °C,2.5%
C[C@]12CC[C@@H](O)C[C@H]1CCc1c2[nH]c2ncccc12 [Compound 3],-0.0743 °C,–,8%,–,–,–,–
C[C@]12CC[C@@H](O)C[C@H]1CCC[C@]21Nc2ccccc2-n2cccc21 [Compound 4],0.5 °C,–,-0.833%,–,–,0.9 °C,-1.67%
C[C@]12CC[C@@H](O)C[C@H]1CCC[C@]21NC(=O)c2ccccc2N1 [Compound 5a],-0.16 °C,–,10%,–,–,0.0244 °C,7%
C[C@]12CC[C@@H](O)C[C@H]1CCC[C@]21NC(=O)c2ccc(F)cc2N1 [Compound 5b],-0.121 °C,–,15%,–,–,0.0138 °C,8%

Structure (SMILES),ΔTm at 10 µM (STARD3),IC50 (Aster-B),inhibition at 10 µM (Aster-B),Kd (STARD3),STARD3 (DSF) ΔTmmax (STARD3),STARD3 (DSF) ΔTm (STARD3),Aster-B (FP) inhibition (Aster-B)
COc1ccc2c(c1)C(=O)N[C@]1(CCC[C@@H]3C[C@H](O)CC[C@@]31C)N2 [Compound 5c],0.114 °C,–,12%,–,–,0.0624 °C,10%
C[C@]12CC[C@@H](O)C[C@H]1CCc1nc3ccccc3nc12 [Compound 7a],-0.1 °C,–,23%,–,–,–,–
Cc1cc2nc3c(nc2cc1C)[C@@]1(C)CC[C@@H](O)C[C@H]1CC3 [Compound 7b],0.0153 °C,–,7.5%,–,–,–,–
C[C@]12CC[C@@H](O)C[C@H]1CCc1nc3cc(F)c(F)cc3nc12 [Compound 7c],–,–,–,–,–,-0.124 °C,4%
C[C@]12CC[C@@H](O)C[C@H]1CCc1nc3cc(Cl)c(Cl)cc3nc12 [Compound 7d],–,–,–,–,–,-0.1 °C,11%
C[C@]12CC[C@@H](O)C[C@H]1CCc1nc3cc(Br)c(Br)cc3nc12 [Compound 7e],–,–,–,–,–,0.138 °C,12%
C[C@]12CC[C@@H](O)C[C@H]1CCc1sc(N)nc12 [Compound 8a],0.0829 °C,–,3.33%,–,–,–,–
Cc1nc2c(s1)CC[C@@H]1C[C@H](O)CC[C@]21C [Compound 8b],–,–,–,–,–,0.0139 °C,7.5%
C[C@]12CC[C@@H](O)C[C@H]1CCc1sc(-c3cccnc3)nc12 [Compound 8c],–,–,–,–,–,0.345 °C,7%
COc1ccc(-c2nc3c(s2)CC[C@@H]2C[C@H](O)CC[C@]32C)cc1 [Compound 8d],0.5 °C,–,6%,–,–,–,–
C[C@]12CC[C@@H](O)C[C@H]1CCc1sc(-c3ccc(F)cc3)nc12 [Compound 8e],–,–,–,–,–,0.0572 °C,8%
C[C@]12CC[C@@H](O)C[C@H]1CCc1[nH]c(-c3ccccc3)nc12 [Compound 9],-0.0297 °C,–,9%,–,–,–,–
C[C@]12CC[C@@H](O)C[C@H]1CCc1c2[nH]c2ccccc12 [Compound 10a],–,–,–,–,–,-0.188 °C,7.5%
C[C@]12CC[C@@H](O)C[C@H]1CCc1c2[nH]c2ccc(Br)cc12 [Compound 10b],–,–,–,–,–,-0.0462 °C,-2.5%
C[C@]12CC[C@@H](O)C[C@H]1CCc1c2[nH]c2ccc(Cl)cc12 [Compound 10c],–,–,–,–,–,-0.121 °C,-5%
